Experimental data reported in the supplement of paper PMC10307832.

Tests used:
Assay in all cases: relative viability (nuclei count vs DMSO), 5 days (fraction); higher = more cells survive
[1] = system: EPLC-272H
In short: (§1)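 Lung cancer cell lines in 1536-well plates got either a single drug or a fixed anchor-drug dose together with five library-drug doses (not always all listed) in √10 steps, by pin tool, on the day after seeding. Nuclei were counted after 5 days, and relative viability is the treated-to-vehicle ratio of nuclei counts. Values are medians of duplicate plates.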

[2] = system: HARA
In short: as §1

[3] = system: NCI-H1915
In short: as §1

[4] = system: ABC-1
In short: as §1

[5] = system: NCI-H1355
In short: as §1

[6] = system: COR-L23
In short: as §1

[7] = system: PC-14
In short: as §1

[8] = system: UMC-11
In short: as §1

[9] = system: LU99A
In short: as §1

[10] = system: NCI-H1651
In short: as §1

[11] = system: NCI-H358
In short: as §1

[12] = system: NCI-H2347
In short: as §1

[13] = system: HCC-44
In short: as §1

[14] = system: LC-2-ad
In short: as §1

[15] = system: HOP-62
In short: as §1

[16] = system: HCC-15
In short: as §1

[17] = system: NCI-H1993
In short: as §1

[18] = system: NCI-H2023
In short: as §1

[19] = system: NCI-H2085
In short: as §1

[20] = system: SW 1573
In short: as §1

[21] = system: NCI-H650
In short: as §1

[22] = system: NCI-H838
In short: as §1

[23] = system: NCI-H2126
In short: as §1

SMILES: O=c1cc(N2CCOCC2)oc2c(-c3cccc4c3sc3ccccc34)cccc12 + O=C(c1cc(Cc2n[nH]c(=O)c3ccccc23)ccc1F)N1CCN(C(=O)C2CC2)CC1 [Olaparib] (partner 8 µM)
- relative viability ([1]; first compound 0.01 µM): 0.761
- relative viability ([1]; first compound 0.03162 µM): 0.934
- relative viability ([1]; first compound 0.1 µM): 0.848
- relative viability ([1]; first compound 0.3162 µM): 0.776
- relative viability ([1]; first compound 1 µM): 0.824
- relative viability ([2]; first compound 0.01 µM): 0.762
- relative viability ([2]; first compound 0.03162 µM): 1.01
- relative viability ([2]; first compound 0.1 µM): 0.884
- relative viability ([2]; first compound 0.3162 µM): 0.972
- relative viability ([2]; first compound 1 µM): 0.792
- relative viability ([3]; first compound 0.01 µM): 0.258
- relative viability ([3]; first compound 0.03162 µM): 0.269
- relative viability ([3]; first compound 0.1 µM): 0.301
- relative viability ([3]; first compound 0.3162 µM): 0.26
- relative viability ([3]; first compound 1 µM): 0.262
- relative viability ([4]; first compound 0.01 µM): 0.917
- relative viability ([4]; first compound 0.03162 µM): 0.686
- relative viability ([4]; first compound 0.1 µM): 0.535
- relative viability ([4]; first compound 0.3162 µM): 0.677
- relative viability ([4]; first compound 1 µM): 0.726
- relative viability ([5]; first compound 0.01 µM): 0.712
- relative viability ([5]; first compound 0.03162 µM): 0.675
- relative viability ([5]; first compound 0.1 µM): 0.711
- relative viability ([5]; first compound 0.3162 µM): 0.709
- relative viability ([5]; first compound 1 µM): 0.743
- relative viability ([6]; first compound 0.01 µM): 0.394
- relative viability ([6]; first compound 0.03162 µM): 0.352
- relative viability ([6]; first compound 0.1 µM): 0.327
- relative viability ([6]; first compound 0.3162 µM): 0.318
- relative viability ([6]; first compound 1 µM): 0.37
- relative viability ([7]; first compound 0.01 µM): 0.285
- relative viability ([7]; first compound 0.03162 µM): 0.21
- relative viability ([7]; first compound 0.1 µM): 0.325
- relative viability ([7]; first compound 0.3162 µM): 0.282
- relative viability ([7]; first compound 1 µM): 0.269
- relative viability ([8]; first compound 0.01 µM): 0.359
- relative viability ([8]; first compound 0.03162 µM): 0.432
- relative viability ([8]; first compound 0.1 µM): 0.895
- relative viability ([8]; first compound 0.3162 µM): 0.699
- relative viability ([8]; first compound 1 µM): 0.404
- relative viability ([9]; first compound 0.01 µM): 0.259
- relative viability ([9]; first compound 0.03162 µM): 0.273
- relative viability ([9]; first compound 0.1 µM): 0.277
- relative viability ([9]; first compound 0.3162 µM): 0.27
- relative viability ([9]; first compound 1 µM): 0.278
- relative viability ([10]; first compound 0.01 µM): 0.19
- relative viability ([10]; first compound 0.03162 µM): 0.188
- relative viability ([10]; first compound 0.1 µM): 0.179
- relative viability ([10]; first compound 0.3162 µM): 0.178
- relative viability ([10]; first compound 1 µM): 0.168
- relative viability ([11]; first compound 0.01 µM): 0.623
- relative viability ([11]; first compound 0.03162 µM): 0.634
- relative viability ([11]; first compound 0.1 µM): 0.721
- relative viability ([11]; first compound 0.3162 µM): 0.553
- relative viability ([11]; first compound 1 µM): 0.669
- relative viability ([12]; first compound 0.01 µM): 0.597
- relative viability ([12]; first compound 0.03162 µM): 0.541
- relative viability ([12]; first compound 0.1 µM): 0.553
- relative viability ([12]; first compound 0.3162 µM): 0.621
- relative viability ([12]; first compound 1 µM): 0.551
- relative viability ([13]; first compound 0.01 µM): 1.01
- relative viability ([13]; first compound 0.03162 µM): 0.909
- relative viability ([13]; first compound 0.1 µM): 0.917
- relative viability ([13]; first compound 0.3162 µM): 0.973
- relative viability ([13]; first compound 1 µM): 0.987
- relative viability ([14]; first compound 0.01 µM): 0.707
- relative viability ([14]; first compound 0.03162 µM): 0.694
- relative viability ([14]; first compound 0.1 µM): 0.77
- relative viability ([14]; first compound 0.3162 µM): 0.764
- relative viability ([14]; first compound 1 µM): 0.662
- relative viability ([15]; first compound 0.01 µM): 0.441
- relative viability ([15]; first compound 0.03162 µM): 0.58
- relative viability ([15]; first compound 0.1 µM): 0.409
- relative viability ([15]; first compound 0.3162 µM): 0.523
- relative viability ([15]; first compound 1 µM): 0.377
- relative viability ([16]; first compound 0.01 µM): 0.692
- relative viability ([16]; first compound 0.03162 µM): 0.742
- relative viability ([16]; first compound 0.1 µM): 0.775
- relative viability ([16]; first compound 0.3162 µM): 0.74
- relative viability ([16]; first compound 1 µM): 0.735
- relative viability ([17]; first compound 0.01 µM): 1.08
- relative viability ([17]; first compound 0.03162 µM): 0.958
- relative viability ([17]; first compound 0.1 µM): 1.23
- relative viability ([17]; first compound 0.3162 µM): 1.04
- relative viability ([17]; first compound 1 µM): 0.984
- relative viability ([18]; first compound 0.01 µM): 0.514
- relative viability ([18]; first compound 0.03162 µM): 0.471
- relative viability ([18]; first compound 0.1 µM): 0.491
- relative viability ([18]; first compound 0.3162 µM): 0.513
- relative viability ([18]; first compound 1 µM): 0.468
- relative viability ([19]; first compound 0.01 µM): 0.806
- relative viability ([19]; first compound 0.03162 µM): 0.813
- relative viability ([19]; first compound 0.1 µM): 0.775
- relative viability ([19]; first compound 0.3162 µM): 0.767
- relative viability ([19]; first compound 1 µM): 0.767
- relative viability ([20]; first compound 0.01 µM): 0.491
- relative viability ([20]; first compound 0.03162 µM): 0.446
- relative viability ([20]; first compound 0.1 µM): 0.447
- relative viability ([20]; first compound 0.3162 µM): 0.441
- relative viability ([20]; first compound 1 µM): 0.466
- relative viability ([21]; first compound 0.01 µM): 0.424
- relative viability ([21]; first compound 0.03162 µM): 0.38
- relative viability ([21]; first compound 0.3162 µM): 0.381
- relative viability ([21]; first compound 1 µM): 0.4
- relative viability ([22]; first compound 0.01 µM): 0.753
- relative viability ([22]; first compound 0.03162 µM): 0.775
- relative viability ([22]; first compound 0.1 µM): 0.851
- relative viability ([22]; first compound 0.3162 µM): 0.769
- relative viability ([22]; first compound 1 µM): 0.749
- relative viability ([23]; first compound 0.01 µM): 0.887
- relative viability ([23]; first compound 0.03162 µM): 0.91
- relative viability ([23]; first compound 0.1 µM): 0.938
- relative viability ([23]; first compound 0.3162 µM): 0.899
- relative viability ([23]; first compound 1 µM): 0.918
